Entries after “also recorded” stand apart in the source; their conditions may differ. Like-named read-outs stand apart in the source and are kept apart here.
Legend:
[1] = test system: human B-52 NSCL cancer model, xenografted in nude mice; test: 2nd experiment: B-52 NSCL cancer xenograft in nude mice, epothilone with Iloprost and/or O-acetyl salicylic acid; conditions: Iloprost 0.2 mg/kg i.v. days 22-26, O-acetyl salicylic acid 60 mg/kg p.o. days 19-29; for effect on tumor growth (tumor area): 2nd experiment (FIG. 1), epothilone 8 mg/kg i.v. once day 24
Method: (§1) B-52 NSCL tumor pieces obtained from in vivo passage, were implanted s.c. in the inguinal region of female nude mice. Treatment was started when the tumors were approximately 25 mm^2 in size. Tumor area was determined by caliper measurements twice weekly.
The 2nd Experiment was made to evaluate in a human B-52 NSCL cancer model, xenografted in nude mice the effect of: • Iloprost and O-acetyl salicyclic acid alone, • the combination of Iloprost and epothilone, • the combination of O-acetyl salicyclic acid and epothilone, • the combination of Iloprost and O-acetyl salicyclic acid as well as • the combination of Iloprost, O-acetyl salicyclic acid and epothilone.
The study was designed to determine the response of a lung cancer model to a cytotoxic treatment regime with the epothilone derivative in combination with Iloprost, O-acetyl salicylic acid or the combination thereof.
The tumor-inhibiting effect of, O-acetyl salicylic acid (ASS) and iloprost was investigated in the human B-52 NSCL cancer model, xenografted in nude mice.
B-52 tumor pieces obtained from in vivo passage, were implanted s.c. in the inguinal region of female nude mice. Treatment was started when the tumors were approximately 25 mm^2 in size. Tumor area was determined by caliper measurements twice weekly.
(§2) Tumor area was determined by caliper measurements.

[2] = test system: human B52 NSCLC cells xenografted to nude mice; conditions: for effect on tumor growth (tumor area): 1st experiment
Method: as §1
B-52 tumor pieces obtained from in vivo passage, were implanted s.c. in the inguinal region of female nude mice. Treatment was started when the tumors were approximately 25 mM2 in size. Tumor area was determined by caliper measurements twice weekly.
as §2

| SMILES | effect on tumor growth (tumor area) [1] | effect on bodyweight ([1]; 2nd experiment) | effect on tumor growth (tumor area) ([2]; Iloprost 0.2 mg/kg i.v. 1x/day days 27-31, epothilone 7 or 10 mg/kg i.v. 1x day 29) | effect on tumor growth (tumor area) ([2]; epothilone at the highest dose of 10 mg/kg i.v. 1x day 29) | toxicity ([2]; mouse, in vivo, iv, 10 mg/kg) |
| --- | --- | --- | --- | --- | --- |
| CC#CCC(C)[C@H](O)/C=C/[C@@H]1[C@H]2C/C(=C/CCCC(=O)O)C[C@H]2C[C@H]1O (stereo partly drawn) [Iloprost, ((E)-5-{(3aS,4R,5R,6aS)-5-Hydroxy-4-[(E)-(3S,4RS)-3-hydroxy)-4-methyl-1-octen-6-ynyl]perhydropentalen-2-ylidene}valeric acid] | no effects | no effect | no significant effect on tumor growth | – | – |
| C=CC[C@H]1C(=O)C(C)(C)[C@@H](O)CC(=O)O[C@H](c2ccc3sc(C)nc3c2)C[C@@H]2O[C@]2(C)CCC[C@H](C)[C@@H]1O [epothilone, (1S,3S,7S,10R,11S,12S,16R)-7,11-dihydroxy-3-(2-methyl-benzothiazol-5-yl)-10-(prop-2-en-1-yl)-8,8,12,16-tetramethyl-4,17-dioxabicyclo[14.1.0]heptadecane-5,9-dione] | slightly reduced tumor growth; also recorded: effective in growth inhibiting | – | – | reduced tumor growth | proved to be toxic |

From patent US20090163450A1, “COMBINATIONS COMPRISING A PROSTAGLANDIN AND USES THEREOF” (priority 2007, published 2009)
